Test results from patent US7994209B2, “3-phenoxymethylpyrrolidine compounds” (Theravance, Inc., priority 2009, dated 2011).

Columns and labels:
[1] = biological target: T1, hSERT (Homo sapiens, UniProt P31645); assay: hSERT neurotransmitter uptake assay (3H-5-HT), Assay 2; assay type: cell-based; design: expressed in transfected cells; host or cells: HEK-293; details: serotonin reuptake inhibition, 3H-5-HT uptake, HEK-293 hSERT cells (values without asterisk); read-out: SERT pIC50 (converted)
Description: (§1) Cells were harvested by centrifugation at 1100 rpm for 5 minutes, washed once by resuspension in PBS, then centrifuged. The supernatant was discarded and the cell pellet resuspended, by gentle trituration, in room temperature Krebs-Ringer bicarbonate buffer containing HEPES (10 mM), CaCl2 (2.2 mM), ascorbic acid (200 μM) and pargyline (200 μM), pH 7.4.
(§2) Test compounds were incubated for 30 minutes at 37° C. with the respective cells, prior to addition of radiolabeled neurotransmitter, ^3H-5-HT (20 nM final concentration), ^3H-NE (50 nM final concentration) or ^3H-DA (100 nM final concentration).

[2] = biological target: T2, hNET (Homo sapiens, UniProt P23975); assay: hNET neurotransmitter uptake assay (3H-NE), Assay 2; assay type: cell-based; design: expressed in transfected cells; host or cells: HEK-293; details: norepinephrine reuptake inhibition, 3H-NE uptake, HEK-293 hNET cells (values without asterisk); read-out: NET pIC50 (converted)
Description: as §1, §2

[3] = biological target: T2, hNET; assay: hNET membrane radioligand binding assay (3H-nisoxetine), Assay 1
Description: Membrane radioligand binding assays were used to measure inhibition of labeled ligand (^3H-citalopram or ^3H-nisoxetine or ^3H-WIN35428) binding to membranes prepared from cells expressing the respective human recombinant transporter (hSERT or hNET or hDAT) in order to determine the pKi values of test compounds at the transporters.
Recombinant human embryonic kidney (HEK-293) derived cell lines stably transfected with hSERT or hNET, respectively, were grown in DMEM medium supplemented with 10% dialyzed FBS (for hSERT) or FBS (for hNET), 100 μg/mL penicillin, 100 μg/mL streptomycin, 2 mM L-glutamine and 250 μg/mL of the aminoglycoside antibiotic G418, in a 5% CO2 humidified incubator at 37° C. When cultures reached 80% confluence, the cells were washed thoroughly in PBS (without Ca^2+ and Mg^2+) and lifted with 5 mM EDTA in PBS. Cells were pelleted by centrifugation, resuspended in lysis buffer (10 mM Tris-HCl, pH7.5 containing 1 mM EDTA), homogenized, pelleted by centrifugation, then resuspended in 50 mM Tris-HCl, pH 7.5 and 10% sucrose at 4° C. Protein concentration of the membrane suspension was determined using a Bio-Rad Bradford Protein Assay kit. Membranes were snap frozen and stored at −80° C.
Binding assays were performed in a 96-well assay plate in a total volume of 200 μl assay buffer (50 mM Tris-HCl, 120 mM NaCl, 5 mM KCl, pH 7.4) with 0.5, 1, and 3 μg membrane protein, for SERT, NET and DAT, respectively.
Stock solutions (10 mM in DMSO) of test compound were prepared and serial dilutions made using Dilution Buffer (50 mM Tris-HCl, 120 mM NaCl, 5 mM KCl, pH 7.4, 0.1% BSA, 400 μM ascorbic acid).
Following a 60 minute incubation at 22° C. (or a period sufficient to reach equilibrium), the membranes were harvested by rapid filtration over a 96-well UniFilter GF/B plate, pretreated with 0.3% polyethyleneimine, and washed 6 times with 300 μl wash buffer (50 mM Tris-HCl, 0.9% NaCl, pH 7.5 at 4° C.). Plates were dried overnight at room temperature, approximately 45 μl of MicroScint™-20 (Perkin Elmer) added and bound radioactivity quantitated via liquid scintillation spectroscopy. Inhibition curves and saturation isotherms were analyzed using GraphPad Prism Software package (GraphPad Software, Inc., San Diego, Calif.). IC50 values were generated from concentration response curves using the Sigmoidal Dose Response (variable slope) algorithm in Prism GraphPad.

[4] = biological target: T1, hSERT; assay: hSERT membrane radioligand binding assay (3H-citalopram), Assay 1; details: SERT pKi, hSERT HEK-293 membranes, 1.0 nM 3H-citalopram; values given as lower bounds

T2 sequence (P23975 whole entry): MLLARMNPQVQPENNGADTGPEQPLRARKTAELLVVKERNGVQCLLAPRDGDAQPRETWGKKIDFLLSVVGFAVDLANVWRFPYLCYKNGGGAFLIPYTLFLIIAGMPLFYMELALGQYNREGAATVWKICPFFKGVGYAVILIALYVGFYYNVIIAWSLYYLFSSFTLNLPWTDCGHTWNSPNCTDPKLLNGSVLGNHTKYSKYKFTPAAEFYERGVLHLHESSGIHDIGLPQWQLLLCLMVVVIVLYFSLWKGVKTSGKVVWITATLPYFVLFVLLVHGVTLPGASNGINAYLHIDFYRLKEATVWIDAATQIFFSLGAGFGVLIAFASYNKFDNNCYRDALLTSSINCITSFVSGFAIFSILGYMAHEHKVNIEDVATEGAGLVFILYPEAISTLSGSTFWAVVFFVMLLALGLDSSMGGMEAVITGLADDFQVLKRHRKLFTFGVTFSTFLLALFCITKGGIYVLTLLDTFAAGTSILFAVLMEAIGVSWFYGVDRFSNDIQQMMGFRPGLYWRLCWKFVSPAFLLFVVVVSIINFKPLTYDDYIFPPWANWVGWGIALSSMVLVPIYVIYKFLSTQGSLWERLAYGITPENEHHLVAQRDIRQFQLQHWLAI
T1 sequence (P31645 whole entry): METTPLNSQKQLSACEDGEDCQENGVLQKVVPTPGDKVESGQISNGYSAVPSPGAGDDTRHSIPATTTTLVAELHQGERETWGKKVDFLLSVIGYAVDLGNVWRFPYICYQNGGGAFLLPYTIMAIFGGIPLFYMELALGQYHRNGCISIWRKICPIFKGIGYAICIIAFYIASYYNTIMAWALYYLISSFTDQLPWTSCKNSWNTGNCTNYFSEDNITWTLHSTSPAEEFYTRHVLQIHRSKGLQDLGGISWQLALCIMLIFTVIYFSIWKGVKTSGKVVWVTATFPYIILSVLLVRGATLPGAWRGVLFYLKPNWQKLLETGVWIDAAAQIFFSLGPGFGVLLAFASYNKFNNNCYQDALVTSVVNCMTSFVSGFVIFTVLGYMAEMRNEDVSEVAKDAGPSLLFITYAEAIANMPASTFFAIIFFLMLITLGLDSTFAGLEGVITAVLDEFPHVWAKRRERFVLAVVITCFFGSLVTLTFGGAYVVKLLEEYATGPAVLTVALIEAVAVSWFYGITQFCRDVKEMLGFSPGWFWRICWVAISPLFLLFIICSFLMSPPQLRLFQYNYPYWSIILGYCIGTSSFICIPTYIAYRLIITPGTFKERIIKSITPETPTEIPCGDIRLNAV

CCC[C@H](Oc1ccc(F)cc1)[C@H]1CCNC1 [Example 4-5, (S)-3-[(S)-1-(4-Fluorophenoxy)butyl]pyrrolidine]
IC50 [1]: ≤ 0.1 µM
IC50 [2]: ≤ 0.01 µM
Ki [3]: ≤ 0.01 µM
Ki [4]: ≤ 0.01 µM

CCC[C@H](Oc1cc(Cl)cc(Cl)c1)[C@H]1CCNC1 [Example 4-6, (S)-3-[(S)-1-(3,5-Dichlorophenoxy)butyl]pyrrolidine]
IC50 [1]: ≤ 0.01 µM
IC50 [2]: ≤ 0.01 µM
Ki [3]: ≤ 0.01 µM
Ki [4]: ≤ 0.01 µM

CCC[C@@H](Oc1cc(Cl)cc(Cl)c1)[C@H]1CCNC1 [Example 4-7, (S)-3-[(R)-1-(3,5-Dichlorophenoxy)butyl]pyrrolidine]
IC50 [1]: ≤ 0.01 µM
IC50 [2]: ≤ 0.01 µM
Ki [3]: ≤ 0.01 µM
Ki [4]: ≤ 0.01 µM

CCC[C@H](Oc1ccc(Cl)c(Cl)c1)[C@H]1CCNC1 [Example 4-12, (S)-3-[(S)-1-(3,4-Dichlorophenoxy)butyl]pyrrolidine]
IC50 [1]: ≤ 0.01 µM
IC50 [2]: ≤ 0.01 µM
Ki [3]: ≤ 0.01 µM
Ki [4]: ≤ 0.01 µM

CCC[C@@H](Oc1ccc(Cl)c(Cl)c1)[C@H]1CCNC1 [Example 4-13, (S)-3-[(R)-1-(3,4-Dichlorophenoxy)butyl]pyrrolidine]
IC50 [1]: ≤ 0.01 µM
IC50 [2]: ≤ 0.01 µM
Ki [3]: ≤ 0.01 µM
Ki [4]: ≤ 0.01 µM

CCC[C@H](Oc1ccc(Cl)c(F)c1)[C@H]1CCNC1 [Example 4-18, (S)-3-[(S)-1-(4-Chloro-3-fluorophenoxy)butyl]pyrrolidine]
IC50 [1]: ≤ 0.01 µM
IC50 [2]: ≤ 0.01 µM
Ki [3]: ≤ 0.01 µM
Ki [4]: ≤ 0.01 µM

CCC[C@H](Oc1ccccc1Cl)[C@H]1CCNC1 [Example 4-19, (S)-3-[(S)-1-(2-Chlorophenoxy)butyl]pyrrolidine]
IC50 [1]: ≤ 0.1 µM
IC50 [2]: ≤ 0.01 µM
Ki [3]: ≤ 0.01 µM
Ki [4]: ≤ 0.01 µM

CCC[C@@H](Oc1ccccc1Cl)[C@H]1CCNC1 [Example 4-20, (S)-3-[(R)-1-(2-Chlorophenoxy)butyl]pyrrolidine]
IC50 [1]: ≤ 0.1 µM
IC50 [2]: ≤ 0.01 µM
Ki [3]: ≤ 0.01 µM
Ki [4]: ≤ 0.01 µM

CCC[C@@H](Oc1cccc(Cl)c1Cl)[C@H]1CCNC1 [Example 4-23, (S)-3-[(R)-1-(2,3-Dichlorophenoxy)butyl]pyrrolidine]
IC50 [1]: ≤ 0.01 µM
IC50 [2]: ≤ 0.01 µM
Ki [3]: ≤ 0.01 µM
Ki [4]: ≤ 0.01 µM

CCC[C@@H](Oc1cccc(Cl)c1Cl)[C@@H]1CCNC1 [Example 4-25, (R)-3-[(R)-1-(2,3-Dichlorophenoxy)butyl]pyrrolidine]
IC50 [1]: ≤ 0.01 µM
IC50 [2]: ≤ 0.01 µM
Ki [3]: ≤ 0.01 µM
Ki [4]: ≤ 0.01 µM

CCC[C@H](Oc1c(Cl)ccc(Cl)c1Cl)[C@H]1CCNC1 [Example 4-27, (S)-3-[(S)-1-(2,3,6-Trichlorophenoxy)butyl]pyrrolidine]
IC50 [1]: ≤ 0.01 µM
IC50 [2]: ≤ 0.01 µM
Ki [3]: ≤ 0.01 µM
Ki [4]: ≤ 0.01 µM

CCC[C@H](Oc1ccc(Cl)cc1Cl)[C@H]1CCNC1 [Example 4-28, (S)-3-[(S)-1-(2,4-Dichlorophenoxy)butyl]pyrrolidine]
IC50 [1]: ≤ 0.01 µM
IC50 [2]: ≤ 0.01 µM
Ki [3]: ≤ 0.01 µM
Ki [4]: ≤ 0.01 µM

CCC[C@H](Oc1ccc(F)cc1Cl)[C@H]1CCNC1 [Example 4-32, (S)-3-[(S)-1-(2-Chloro-4-fluorophenoxy)butyl]pyrrolidine]
IC50 [1]: ≤ 0.01 µM
IC50 [2]: ≤ 0.01 µM
Ki [3]: ≤ 0.01 µM
Ki [4]: ≤ 0.01 µM

CCC[C@H](Oc1c(Cl)cccc1Cl)[C@H]1CCNC1 [Example 4-33, (S)-3-[(S)-1-(2,6-Dichlorophenoxy)butyl]pyrrolidine]
IC50 [1]: ≤ 0.1 µM
IC50 [2]: ≤ 0.01 µM
Ki [3]: ≤ 0.01 µM
Ki [4]: ≤ 0.01 µM

CCC[C@H](Oc1ccc(C)cc1Cl)[C@H]1CCNC1 [Example 4-37, (S)-3-[(S)-1-(2-Chloro-4-methylphenoxy)butyl]pyrrolidine]
IC50 [1]: ≤ 0.01 µM
IC50 [2]: ≤ 0.01 µM
Ki [3]: ≤ 0.01 µM
Ki [4]: ≤ 0.01 µM

CCC[C@H](Oc1c(F)ccc(OC)c1Cl)[C@H]1CCNC1 [Example 4-43, (S)-3-[(S)-1-(2-Chloro-6-fluoro-3-methoxyphenoxy)butyl]pyrrolidine]
IC50 [1]: ≤ 0.01 µM
IC50 [2]: ≤ 0.01 µM
Ki [3]: ≤ 0.01 µM
Ki [4]: ≤ 0.01 µM

CCC[C@H](Oc1ccc(F)c(F)c1F)[C@H]1CCNC1 [Example 4-50, (S)-3-[(S)-1-(2,3,4-Trifluorophenoxy)butyl]pyrrolidine]
IC50 [1]: ≤ 0.1 µM
IC50 [2]: ≤ 0.01 µM
Ki [3]: ≤ 0.01 µM
Ki [4]: ≤ 0.01 µM

CCC[C@H](Oc1cccc(Cl)c1C)[C@H]1CCNC1 [Example 4-54, (S)-3-[(S)-1-(3-Chloro-2-methylphenoxy)butyl]pyrrolidine]
IC50 [1]: ≤ 0.01 µM
IC50 [2]: ≤ 0.01 µM
Ki [3]: ≤ 0.01 µM
Ki [4]: ≤ 0.01 µM

CCC[C@@H](Oc1cccc(Cl)c1C)[C@H]1CCNC1 [Example 4-55, (S)-3-[(R)-1-(3-Chloro-2-methylphenoxy)butyl]pyrrolidine]
IC50 [1]: ≤ 0.1 µM
IC50 [2]: ≤ 0.01 µM
Ki [3]: ≤ 0.01 µM
Ki [4]: ≤ 0.01 µM

CCC[C@@H](Oc1cccc(Cl)c1C)[C@@H]1CCNC1 [Example 4-57, (R)-3-[(R)-1-(3-Chloro-2-methylphenoxy)butyl]pyrrolidine]
IC50 [1]: ≤ 0.01 µM
IC50 [2]: ≤ 0.01 µM
Ki [3]: ≤ 0.01 µM
Ki [4]: ≤ 0.01 µM

CCC[C@H](Oc1ccc(Cl)cc1C)[C@H]1CCNC1 [Example 4-58, (S)-3-[(S)-1-(4-Chloro-2-methylphenoxy)butyl]pyrrolidine]
IC50 [1]: ≤ 0.01 µM
IC50 [2]: ≤ 0.01 µM
Ki [3]: ≤ 0.01 µM
Ki [4]: ≤ 0.01 µM

CCC[C@@H](Oc1cccc(C)c1C)[C@@H]1CCNC1 [Example 4-63, (R)-3-[(R)-1-(2,3-Dimethylphenoxy)butyl]pyrrolidine]
IC50 [1]: ≤ 0.01 µM
IC50 [2]: ≤ 0.01 µM
Ki [3]: ≤ 0.01 µM
Ki [4]: ≤ 0.01 µM

CC(C)[C@H](Oc1ccc(Cl)cc1)[C@H]1CCNC1 [Example 5, (S)-3-[(S)-1-(4-Chlorophenoxy)-2-methylpropyl]pyrrolidine]
IC50 [1]: ≤ 0.01 µM
IC50 [2]: ≤ 0.01 µM
Ki [3]: ≤ 0.01 µM
Ki [4]: ≤ 0.01 µM

CC(C)[C@H](Oc1ccc(Cl)c(Cl)c1F)[C@H]1CCNC1 [Example 6-7, (S)-3-[(S)-1-(3,4-Dichloro-2-fluorophenoxy)-2-methylpropyl]pyrrolidine]
IC50 [1]: ≤ 0.01 µM
IC50 [2]: ≤ 0.01 µM
Ki [3]: ≤ 0.01 µM
Ki [4]: ≤ 0.01 µM

CC(C)[C@H](Oc1ccc(Cl)c(F)c1F)[C@H]1CCNC1 [Example 6-10, (S)-3-[(S)-1-(4-Chloro-2,3-difluorophenoxy)-2-methylpropyl]pyrrolidine]
IC50 [1]: ≤ 0.01 µM
IC50 [2]: ≤ 0.01 µM
Ki [3]: ≤ 0.01 µM
Ki [4]: ≤ 0.01 µM

CC(C)C(Oc1ccccc1Cl)C1CCNC1 (stereo not shown) [Example 6-11, 3-[1-(2-Chlorophenoxy)-2-methylpropyl]pyrrolidine]
IC50 [1]: ≤ 0.1 µM
IC50 [2]: ≤ 0.01 µM
Ki [3]: ≤ 0.01 µM
Ki [4]: ≤ 0.01 µM

CC(C)[C@H](Oc1cccc(Cl)c1Cl)[C@H]1CCNC1 [Example 6-12, (S)-3-[(S)-1-(2,3-Dichlorophenoxy)-2-methylpropyl]pyrrolidine]
IC50 [1]: ≤ 0.01 µM
IC50 [2]: ≤ 0.01 µM
Ki [3]: ≤ 0.01 µM
Ki [4]: ≤ 0.01 µM

CC(C)C(Oc1cccc(Cl)c1Cl)C1CCNC1 (stereo not shown) [Example 6-13, 3-[1-(2,3-Dichlorophenoxy)-2-methylpropyl]pyrrolidine]
IC50 [1]: ≤ 0.01 µM
IC50 [2]: ≤ 0.01 µM
Ki [3]: ≤ 0.01 µM
Ki [4]: ≤ 0.01 µM

CC(C)[C@@H](Oc1cccc(Cl)c1Cl)[C@H]1CCNC1 [Example 6-14, (S)-3-[(R)-1-(2,3-Dichlorophenoxy)-2-methylpropyl]pyrrolidine]
IC50 [1]: ≤ 0.01 µM
IC50 [2]: ≤ 0.01 µM
Ki [3]: ≤ 0.01 µM
Ki [4]: ≤ 0.01 µM

CC(C)[C@@H](Oc1cccc(Cl)c1Cl)[C@@H]1CCNC1 [Example 6-15, (R)-3-[(R)-1-(2,3-Dichlorophenoxy)-2-methylpropyl]pyrrolidine]
IC50 [1]: ≤ 0.01 µM
IC50 [2]: ≤ 0.01 µM
Ki [3]: ≤ 0.01 µM
Ki [4]: ≤ 0.01 µM

CC(C)[C@H](Oc1cccc(F)c1Cl)[C@H]1CCNC1 [Example 6-17, (S)-3-[(S)-1-(2-Chloro-3-fluorophenoxy)-2-methylpropyl]pyrrolidine]
IC50 [1]: ≤ 0.01 µM
IC50 [2]: ≤ 0.01 µM
Ki [3]: ≤ 0.01 µM
Ki [4]: ≤ 0.01 µM

CC(C)C(Oc1cccc(F)c1Cl)C1CCNC1 (stereo not shown) [Example 6-18, 3-[1-(2-Chloro-3-fluorophenoxy)-2-methylpropyl]pyrrolidine]
IC50 [1]: ≤ 0.1 µM
IC50 [2]: ≤ 0.01 µM
Ki [3]: ≤ 0.01 µM
Ki [4]: ≤ 0.01 µM

CC(C)[C@@H](Oc1cccc(F)c1Cl)[C@H]1CCNC1 [Example 6-19, (S)-3-[(R)-1-(2-Chloro-3-fluorophenoxy)-2-methylpropyl]pyrrolidine]
IC50 [1]: ≤ 0.01 µM
IC50 [2]: ≤ 0.1 µM
Ki [3]: ≤ 0.1 µM
Ki [4]: ≤ 0.01 µM

CC(C)[C@H](Oc1ccc(Cl)cc1Cl)[C@H]1CCNC1 [Example 6-21, (S)-3-[(S)-1-(2,4-Dichlorophenoxy)-2-methylpropyl]pyrrolidine]
IC50 [1]: ≤ 0.01 µM
IC50 [2]: ≤ 0.01 µM
Ki [3]: ≤ 0.01 µM
Ki [4]: ≤ 0.01 µM
